Test results published in patent US20230365556A1, “N-ACYL AMINO ACID COMPOUNDS AND METHODS OF USE” (Pliant Therapeutics, Inc., priority 2016, published 2023).
Structures can show the parent of a compound that is named as a salt.

These molecules were tested against αvβ1 integrin (αvβ1 expressing CHO cells) (Homo sapiens (Human), UniProt P05556+P06756) (assay: Cell adhesion assay: inhibition of αvβ1 expressing CHO cells attaching to TGFβ1LAP). Conditions: 1 h at 37° C., crystal violet absorbance 595 nm, read-out: αvβ1 Inhibition IC50 (nM)-range.
Type: cell-based
Procedure: Example B1—Cell Adhesion Assay
In order to determine the potency, the compounds were assessed for their ability to inhibit αvβ1 expressing CHO cells attach to TGFβ1LAP. Microplates were coated overnight with 2 ug/ml TGFβ1LAP at 4° C., and blocked with 2% BSA/PBS for 30 min before the assay. Cells were detached and washed in PBS. After that the cells were resuspended in DMEM at 1.0×10^6 cells/ml, fifty microliter of cell suspension and fifty microliter of compound solution were added into the plate. The plates were incubated for one hour at 37° C. in humidified 5% carbon dioxide. Non-adherent cells were removed by centrifugation top side down at 58 g for 5 min. The attached cells were fixed and stained with 0.5% crystal violet (in 20% methanol and 1% formaldehyde) and the wells washed with PBS. Crystal violet was dissolved in 2% Triton-X in PBS. The relative number of cells in each well was evaluated by the absorbance at 595 nm in a microplate reader (Tecan). IC50 values were determined by non-linear regression with four parameters (Graphpad Prism 7.01, Y=Bottom+(Top−Bottom)/(1+10^((Log IC50−X)*HillSlope)).
The compounds tested were compound samples prepared according to procedures described in the Synthetic Examples section, with the stereochemical purity as indicated in the Examples indicated for Example or Compound No. 1-62. The compounds tested were predominantly S-configuration at the alpha carbon of the amino acid scaffold, except for compounds 123, 124, and 125 which were predominantly R-configuration at the alpha carbon of the amino acid scaffold. “Example or Compound No.” in Table B-1 refers to the compound illustrated in the examples for Example or Compound Nos. 1-62 (the compounds of Examples 1-62 are labeled as Compounds 1-62 in Table 1). “Example or Compound No.” in Table B-1 refers to the compound number as indicated in Table 1 or Table 2 for Example or Compound Nos. 63-126.

Chain of αvβ1 integrin (αvβ1 expressing CHO cells) (P06756 31-889): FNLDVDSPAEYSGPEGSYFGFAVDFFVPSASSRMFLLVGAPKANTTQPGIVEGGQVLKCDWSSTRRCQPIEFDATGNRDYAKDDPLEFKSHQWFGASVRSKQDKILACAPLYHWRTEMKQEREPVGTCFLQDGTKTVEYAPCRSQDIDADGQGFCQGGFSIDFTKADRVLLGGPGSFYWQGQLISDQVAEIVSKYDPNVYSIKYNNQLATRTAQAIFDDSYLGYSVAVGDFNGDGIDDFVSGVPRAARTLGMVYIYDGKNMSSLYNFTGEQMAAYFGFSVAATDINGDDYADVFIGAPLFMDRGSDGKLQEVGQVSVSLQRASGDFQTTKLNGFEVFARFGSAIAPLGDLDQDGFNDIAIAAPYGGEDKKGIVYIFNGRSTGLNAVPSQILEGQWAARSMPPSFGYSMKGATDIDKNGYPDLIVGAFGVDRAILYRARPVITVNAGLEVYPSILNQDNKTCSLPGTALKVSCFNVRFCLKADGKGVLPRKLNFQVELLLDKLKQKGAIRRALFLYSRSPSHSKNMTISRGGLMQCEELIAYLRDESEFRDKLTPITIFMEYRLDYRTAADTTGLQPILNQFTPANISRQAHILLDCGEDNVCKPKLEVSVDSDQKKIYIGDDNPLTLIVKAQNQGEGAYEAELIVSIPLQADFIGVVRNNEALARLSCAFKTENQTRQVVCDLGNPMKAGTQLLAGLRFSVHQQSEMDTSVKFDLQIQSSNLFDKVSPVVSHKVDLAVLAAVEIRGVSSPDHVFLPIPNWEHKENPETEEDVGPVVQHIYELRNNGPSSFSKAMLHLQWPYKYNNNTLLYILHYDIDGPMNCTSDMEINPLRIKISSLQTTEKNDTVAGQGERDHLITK
Chain of αvβ1 integrin (αvβ1 expressing CHO cells) (P06756 891-1048 partner): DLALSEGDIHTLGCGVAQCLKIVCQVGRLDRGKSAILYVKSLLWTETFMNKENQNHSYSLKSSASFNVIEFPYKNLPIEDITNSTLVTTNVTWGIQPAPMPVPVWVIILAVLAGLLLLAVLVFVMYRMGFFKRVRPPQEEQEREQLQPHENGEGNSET
Chain of αvβ1 integrin (αvβ1 expressing CHO cells) (P05556 21-798): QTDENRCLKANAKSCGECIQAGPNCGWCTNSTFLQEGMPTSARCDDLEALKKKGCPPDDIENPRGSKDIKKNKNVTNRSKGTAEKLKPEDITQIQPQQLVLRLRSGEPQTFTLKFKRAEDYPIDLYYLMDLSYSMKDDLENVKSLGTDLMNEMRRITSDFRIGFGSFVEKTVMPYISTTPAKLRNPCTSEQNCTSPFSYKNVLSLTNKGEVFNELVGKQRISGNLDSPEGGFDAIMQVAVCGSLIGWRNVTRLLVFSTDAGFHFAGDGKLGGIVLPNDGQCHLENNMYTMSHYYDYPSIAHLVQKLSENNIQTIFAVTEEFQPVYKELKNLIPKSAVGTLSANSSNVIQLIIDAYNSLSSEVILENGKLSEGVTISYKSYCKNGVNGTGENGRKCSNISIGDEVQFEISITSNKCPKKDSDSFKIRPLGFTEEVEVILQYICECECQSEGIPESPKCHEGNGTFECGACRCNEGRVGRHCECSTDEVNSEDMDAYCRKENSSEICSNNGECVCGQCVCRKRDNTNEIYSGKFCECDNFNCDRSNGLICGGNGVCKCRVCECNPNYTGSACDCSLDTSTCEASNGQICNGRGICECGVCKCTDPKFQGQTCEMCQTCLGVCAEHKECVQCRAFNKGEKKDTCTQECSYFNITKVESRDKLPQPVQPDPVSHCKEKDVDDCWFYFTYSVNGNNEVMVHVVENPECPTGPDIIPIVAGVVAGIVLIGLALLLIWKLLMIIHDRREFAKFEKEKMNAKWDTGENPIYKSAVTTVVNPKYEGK

Q: Which IC50 does the source give for `N#Cc1ccc(C(=O)N[C@@H](CCCCCCCc2ccc3c(n2)NCCC3)C(=O)O)c(F)c1` [Compound 101] here?
A: < 50 nM

Q: With `O=C(N[C@@H](CCCCCCCCNC1=NCCCO1)C(=O)O)c1c(Cl)cccc1Cl` [Example 51, (S)-2-(2,6-dichlorobenzamido)-10-((5,6-dihydro-4H-1,3-oxazin-2-yl)amino)decanoic acid] as the molecule, how does the IC50 read?
A: > 1000 nM

Q: For `O=C(NC(CN1CC(OCCCc2ccc3c(n2)NCCC3)C1)C(=O)O)c1c(Cl)cccc1Cl` (racemic) [Example 28, (+/−)-2-(2,6-dichlorobenzamido)-3-(3-(3-(5,6,7,8-tetrahydro-1,8-naphthyridin-2-yl)propoxy)azetidin-1-yl)propanoic acid], which IC50 is on record?
A: 250 to 1000 nM

Q: `O=C(N[C@@H](Cc1ccc(OCCCCNC2=NCCCS2)cc1)C(=O)O)c1c(Cl)cccc1Cl` [Example 60, (S)-2-(2,6-dichlorobenzamido)-3-(4-(4-((5,6-dihydro-4H-1,3-thiazin-2-yl)amino)butoxy)phenyl)propanoic acid] was tested. Which IC50 did it give?
A: < 50 nM

Q: Which IC50 does the source give for `O=C(N[C@@H](CCCCCCCc1ccc2c(n1)NCCC2)C(=O)O)c1ccc(-c2cccnc2)cc1` [Compound 111] here?
A: 250 to 1000 nM

Q: Which IC50 does the source give for `O=C(N[C@@H](Cc1ccc(OCCCc2ccc3c(n2)NCCC3)cc1)C(=O)O)c1ccc2ocnc2c1` [Example 10, (S)-2-(benzo[d]oxazole-5-carboxamido)-3-(4-(3-(5,6,7,8-tetrahydro-1,8-naphthyridin-2-yl)propoxy)phenyl)propanoic acid] here?
A: < 50 nM

Q: For `CN1CC(NCCCCCCCC[C@H](NC(=O)c2c(Cl)cccc2Cl)C(=O)O)=NCC1=O` [Example 52, (S)-2-(2,6-dichlorobenzamido)-10-((4-methyl-5-oxo-3,4,5,6-tetrahydropyrazin-2-yl)amino)decanoic acid], which IC50 is on record?
A: > 1000 nM

Q: For `O=C(N[C@@H](Cc1ccc(OCCCc2ccc3c(n2)NCCC3)cc1)C(=O)O)c1ccc2cn[nH]c2c1` [Example 40, (2S)-2-(1H-indazole-6-carbonylamino)-3-[4-[3-(5,6,7,8-tetrahydro-1,8-naphthyridin-2-yl)propoxy]phenyl]propanoic acid], which IC50 is on record?
A: < 50 nM

Q: With `O=C(N[C@@H](Cc1ccc(COCCCNc2ccccn2)cc1)C(=O)O)c1c(Cl)cccc1Cl` [Example 30, (S)-2-(2,6-dichlorobenzamido)-3-(4-((3-(pyridin-2-ylamino)propoxy)methyl)phenyl) propanoic acid trifluoroacetate] as the molecule, how does the IC50 read?
A: 250 to 1000 nM

Q: With `CC(C)(CCNc1ccccn1)Nc1ccc(C[C@H](NC(=O)c2c(Cl)cccc2Cl)C(=O)O)cc1` [Example 26, (S)-2-(2,6-dichlorobenzamido)-3-(4-((2-methyl-4-(pyridin-2-ylamino)butan-2-yl)amino)phenyl)propanoic acid] as the molecule, how does the IC50 read?
A: > 1000 nM

Q: For `O=C(N[C@@H](CCCCCCCc1ccc2c(n1)NCCC2)C(=O)O)c1ccc2nn(C(F)F)cc2c1` [Compound 106], which IC50 is on record?
A: 250 to 1000 nM

Q: `O=C(N[C@@H](Cc1ccc(OCCCc2ccc3c(n2)NCCC3)cc1)C(=O)O)c1ccc2[nH]ncc2c1` [Example 42, (2S)-2-(1H-indazole-5-carbonylamino)-3-[4-[3-(5,6,7,8-tetrahydro-1,8-naphthyridin-2-yl)propoxy]phenyl]propanoic acid] was tested. Which IC50 did it give?
A: < 50 nM

Q: How did the IC50 turn out when `Cn1cc2ccc(C(=O)N[C@@H](Cc3ccc(OCCCc4ccc5c(n4)NCCC5)cc3)C(=O)O)cc2n1` [Example 44, (2S)-2-[(2-methylindazole-6-carbonyl)amino]-3-[4-[3-(5,6,7,8-tetrahydro-1,8-naphthyridin-2-yl)propoxy]phenyl]propanoic acid] was run?
A: < 50 nM

Q: With `O=C(N[C@@H](Cc1ccc(OCCCc2ccc3c(n2)NCCC3)cc1)C(=O)O)c1ccncc1` [Example 13, (S)-2-(isonicotinamido)-3-(4-(3-(5,6,7,8-tetrahydro-1,8-naphthyridin-2-yl)propoxy)phenyl)propanoic acid] as the molecule, how does the IC50 read?
A: < 50 nM

Q: For `O=C(N[C@@H](Cc1ccc(OCC2(CNc3ccccn3)CC2)cc1)C(=O)O)c1c(Cl)cccc1Cl` [Example 46, (2S)-2-((2,6-dichlorobenzoyl)amino)-3-(4-((1-((2-pyridylamino)methyl)cyclopropyl)methoxy)phenyl)propanoic acid], which IC50 is on record?
A: 50 to 250 nM

Q: With `O=C(N[C@@H](CCCCCCCc1ccc2c(n1)NCCC2)C(=O)O)c1cn[nH]c1-c1ccccc1` [Compound 110] as the molecule, how does the IC50 read?
A: 50 to 250 nM

Q: Which IC50 does the source give for `O=C(N[C@@H](CCCCCCCc1ccc2c(n1)NCCC2)C(=O)O)c1ccc2[nH]ncc2c1` [Compound 103] here?
A: 50 to 250 nM

Q: How did the IC50 turn out when `Cn1cc2cc(C(=O)N[C@@H](Cc3ccc(OCCCc4ccc5c(n4)NCCC5)cc3)C(=O)O)ccc2n1` [Example 45, (2S)-2-[(2-methylindazole-5-carbonyl)amino]-3-[4-[3-(5,6,7,8-tetrahydro-1,8-naphthyridin-2-yl)propoxy]phenyl]propanoic acid] was run?
A: < 50 nM

Q: For `O=C(N[C@@H](C/C=C/CCCCc1ccc2c(n1)NCCC2)C(=O)O)c1c(Cl)cccc1Cl` [Example 20, (S,E)-2-(2,6-dichlorobenzamido)-9-(5,6,7,8-tetrahydro-1,8-naphthyridin-2-yl)non-4-enoic acid], which IC50 is on record?
A: < 50 nM

Q: Which IC50 does the source give for `O=C(N[C@@H](Cc1ccc(OCCCCNC2=NCCNC2)cc1)C(=O)O)c1c(Cl)cccc1Cl` [Example 56, (S)-2-(2,6-dichlorobenzamido)-3-(4-(4-((3,4,5,6-tetrahydropyrazin-2-yl)amino)butoxy)phenyl)propanoic acid] here?
A: 250 to 1000 nM

Q: `O=C(N[C@@H](CCCCCCCc1ccc2c(n1)NCCC2)C(=O)O)c1ccc2cn(C(F)F)nc2c1` [Compound 108] was tested. Which IC50 did it give?
A: 50 to 250 nM

Q: With `O=C(N[C@@H](Cc1ccc(OCCCc2ccc3c(n2)NCCC3)cc1)C(=O)O)c1cnc(C(F)F)cn1` [Example 3, (S)-2-(5-(difluoromethyl)pyrazine-2-carboxamido)-3-(4-(3-(5,6,7,8-tetrahydro-1,8-naphthyridin-2-yl)propoxy)phenyl)propanoic acid] as the molecule, how does the IC50 read?
A: < 50 nM

Q: Which IC50 does the source give for `O=C(N[C@@H](CCCCCCCc1ccc2c(n1)NCCC2)C(=O)O)c1ccc2c(cnn2C(F)F)c1` [Compound 107] here?
A: 250 to 1000 nM

Q: Which IC50 does the source give for `Cn1cc(-c2ccc(C(=O)N[C@@H](CCCCCCCc3ccc4c(n3)NCCC4)C(=O)O)cc2)cn1` [Compound 113] here?
A: 50 to 250 nM

Q: Which IC50 does the source give for `O=C(NC(Cc1ccc(OCC2CC(Nc3ccccn3)C2)cc1)C(=O)O)c1c(Cl)cccc1Cl` [Example 23, (S)-2-(2,6-dichlorobenzamido)-3-(4-(((1s,3R)-3-(pyridin-2-ylamino)cyclobutyl)methoxy)phenyl)propanoic acid] here?
A: < 50 nM

Q: Which IC50 does the source give for `O=C(N[C@@H](Cc1ccc(OCCCc2ccc3c(n2)NCCC3)cc1)C(=O)O)c1ccccc1` [Example 1, (S)-2-benzamido-3-(4-(3-(5,6,7,8-tetrahydro-1,8-naphthyridin-2-yl)propoxy)phenyl)propanoic acid] here?
A: < 50 nM

Q: Which IC50 does the source give for `O=C(NC(Cc1ccc(OCCCc2ccc3c(n2)NCCC3)cc1)C(=O)O)c1c(Cl)cc(-c2cnc[nH]2)cc1Cl` (centres unmarked) [Compound 99] here?
A: < 50 nM

Q: How did the IC50 turn out when `CN1C(=O)CN=C1NCCCCCCCC[C@H](NC(=O)c1c(Cl)cccc1Cl)C(=O)O` [Example 50, (S)-2-(2,6-dichlorobenzamido)-10-((1-methyl-5-oxo-4,5-dihydro-1H-imidazol-2-yl)amino)decanoic acid] was run?
A: > 1000 nM

Q: `O=C(N[C@@H](Cc1ccc(OCCCc2ccc3c(n2)NCCC3)cc1)C(=O)O)c1c(F)cccc1C(F)(F)F` [Example 6, (S)-2-(2-fluoro-6-(trifluoromethyl)benzamido)-3-(4-(3-(5,6,7,8-tetrahydro-1,8-naphthyridin-2-yl)propoxy)phenyl)propanoic acid] was tested. Which IC50 did it give?
A: < 50 nM
